In ChEMBL document CHEMBL5247626, “In vitro and in vivo biological evaluation of newly synthesized multi-target 20(R)-panaxadiol derivatives for treating Alzheimer's disease” (Eur J Med Chem, 2022):
Active and inactive are the calls of the source. No cut-off for these calls is given here.

Assays:
Mus musculus = assay: Antialzheimer activity against amyloid beta (25 to 35)-induced brain injury ICR mouse model assessed as increase in NeuN expression level in hippocampal CA3 region at 50 mg/kg,po administrated for 21 days by immunohistochemistry analysis; assay type: functional, organism-based; settings: time 21.0 day
HUVEC = assay: Cytotoxicity against human HUVEC cells assessed as effect on survival at < 60 uM incubated for 24 hrs by MTT assay; assay type: toxicity, cell-based
PC-12 [1] = assay: Neuroprotective activity against amyloid beta (25 to 35)-induced rat PC12 cells assessed as decrease in intracellular ROS level at 7.5 uM incubated for 24 hrs by DCFH-DA staining based flow cytometry assay; assay type: functional, cell-based
PC-12 [2] = assay: Neuroprotective activity against rat PC12 cells assessed as reduction in amyloid beta (25 to 35)-induced cytotoxicity at 2.67 to 91.27 uM incubated for 4 hrs followed by amyloid beta (25 to 35) treatment for 24 hrs by MTT assay relative to control; assay type: functional; set-up: scale not given: the % may be the effect or the level left; settings: dose 2.67-91.27 µM, time 28 hrs

## CC1(C)CCC[C@](C)([C@H]2CC[C@]3(C)[C@@H]2[C@H](O)C[C@@H]2[C@@]4(C)CC[C@H](OC(=O)NCc5ccccc5)C(C)(C)[C@@H]4CC[C@]23C)O1
Mus musculus
  Activity: Active
HUVEC
  Activity: Non-Toxic
PC-12 [1]
  Activity: Active
PC-12 [2]
  Activity: 14.89%
